Source: patent US20110230476A1, “PI3 KINASE INHIBITORS AND USES THEREOF” (AVILA THERAPEUTICS, INC., priority 2009, published 2011)

Experiments:
PI3K = PI3K HCT116 cellular assay (Western blot); format: cell-based; settings: Homo sapiens, HCT-116, HCT116 colon cancer cells, 1 hour incubation, read-out: PI3K Inhibition
Procedure: PI3K HCT116 Cellular Assay
Selected compounds were assayed in HCT116 colon cancer cells. […] Cells were then washed with PBS, lysed and the protein lysates were then recovered and analyzed by Western blot.

PI3Kα (p110α/p85α) = molecular target: T1, PI3Kα (p110α/p85α) (Homo sapiens, UniProt P42336); test: HTRF assay, potency against active PI3Kα; format: biochemical; settings: HTRF; [ATP]=50 μM, [di-C8-PIP2]=10 μM; 30 min pre-incubation; read-out: PI3Kα Inhibition
T1 construct: purchased BPS Bioscience (San Diego, Calif.) or Millipore (Billerica, Mass.)
Method in brief: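 Active p110/p85α lipid kinase reactions were started with ATP and run 30-60 minutes at 25 °C, then stopped and developed with HTRF detection mix. HTRF ratio converted to % inhibition against ±enzyme controls; IC50 from log[inhibitor] vs response, variable slope.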

PI3Kγ (p120γ) = molecular target: T2, PI3Kγ (p120γ) (Homo sapiens, UniProt P48736); test: HTRF assay, potency against active PI3Kγ; format: biochemical; settings: [ATP]=50 μM, [di-C8-PIP2]=10 μM, 30 min pre-incubation, read-out: PI3Kγ Inhibition
T2 construct: purchased BPS Bioscience (San Diego, Calif.) or Millipore (Billerica, Mass.)
Source text: Homogeneous Time Resolved Fluorescence (HTRF) Assay Protocol for Potency Assessment Against the Active Forms of PI3Kα, PI3Kβ, and PI3Kγ
The protocol below describes an end-point, competition-binding HTRF assay used to measure inherent potency of test compounds against active PI3Kα (p110α/p85α), PI3Kβ (p110β/p85α), and PI3Kγ (p120γ) enzymes. The mechanics of the assay platform are best described by the vendor (Millipore, Billerica, Mass.) on their website at the following URL: www.millipore.com/coa/tech1/74jt4z.
Briefly, Stop solution (Stop A, #33-007 and Stop B, #33-009; 3:1 ratio) and Detection Mix (from DMC, #33-015 with DMA, #33-011 and DMB, #33-013; 18:1:1 ratio) were prepared as recommended by the manufacturer about 2 hrs prior to use. Additionally, 1× reaction buffer (from 4× buffer stock# 33-003), 1.4× stocks of PI3Kα, PI3Kβ, and PI3Kγ enzymes from BPS Bioscience (San Diego, Calif.) or Millipore (Billerica, Mass.) with di-C8-PIP2 lipid substrate (#33-005), and a 4×ATP solution (#A7699 Sigma/Aldrich; St. Louis, Mo.) were prepared in 1× reaction buffer. 15 μL of PI3K enzymes and lipid substrate mix were pre-incubated in a Corning (#3573) 384-well, black, non-treated microtiter plate (Corning, N.Y.) for 30 min at 25° C. with a 0.5 μL volume of 50% DMSO and serially diluted compounds prepared in 50% DMSO. Lipid kinase reactions were started with the addition of 5 μL of ATP solution, mixed for 15 sec on a rotary plate shaker and incubated for 30-60 minutes at 25° C. Next, reactions were stopped with a 5 μL addition of Stop solution immediately followed by a 5 μL volume of Detection Mix. Stopped reactions were equilibrated for 1 and 18 hrs at room temperature and read in a Synergy^4 plate reader from BioTek (Winooski, Vt.) at λex330-80/λem620-35 and λem665-7.5. At the conclusion of each assay, the HTRF ratio from fluorescence emission values for each well was calculated and % Inhibition determined from averaged controls wells (+/−PI3K enzyme). % Inhibition values for each compound were then plotted against inhibitor concentration to estimate IC50 from log [Inhibitor] vs Response, Variable Slope model in GraphPad Prism from GraphPad Software (San Diego, Calif.).
[Reagent] used in optimized protocol: • [p110α/p85α]=0.5-1.5 nM, [ATP]=50 μM, [di-C8—PIP2]=10 μM • [p110β/p85α]=0.75 nM, [ATP]=50 μM, [di-C8—PIP2]=10 μM • [p120γ]=2-2.5 nM, [ATP]=50 μM, [di-C8—PIP2]=10 μM • (ATP KMapp for both enzymes was estimated to be 40-70 μM)

Phospho-Akt(Ser473) = test: Dose response in SKOV3 cells as determined by Western blot; format: cell-based; settings: Homo sapiens, SK-OV-3, 1 hr, Phospho-Akt normalized to total Akt, read-out: Immunoblot
Procedure: Dose Response in SKOV3 Cells as Determined by Western Blot
SKOV3 cells were plated in SKOV3 Growth Media (DMEM supplemented with 10% FBS and pen/strep) at a density of 4×10^5 cells per well of 12 well plates. Twenty four hours later the media was removed and replaced with 1 ml media containing test compound and 0.1% DMSO and cells were returned to the incubator for 1 hr. At the end of the hour, the media was removed and the cells were washed with PBS, then lysed and scraped into 30 ul of Cell Extraction Buffer (Biosource, Camarillo, Calif.) plus Complete Protease Inhibitor and PhosStop Phosphatase Inhibitor (Roche, Indianapolis, Ind.).
Cell debris was spun down at 13,000×g for 1 minute and the supernatant was taken as the cell lysate. Protein concentration of the lysate was determined by BCA Assay (Pierce Biotechnology, Rockford, Ill.) and 50 ug of protein was loaded per well onto a NuPAGE Novex 4-12% Bis-Tris gel (Invitrogen, Carlsbad, Calif.) then transferred to Immobilon PVDF-FL (Millipore, Billerica, Mass.).
The blot was blocked in Odyssey Blocking Buffer (Li-Cor Biosciences, Lincoln, Nebr.) for 1 hr then incubated overnight at 4° C. with mouse anti-Akt (#2920) and rabbit anti-Phospho-Akt(Ser473) (#9271)(Cell Signaling Technology, Boston, Mass.) antibodies, both diluted 1:1000 in PBS/Odyssey Buffer (1:1)+0.1% Tween-20. The blots were washed 3 times 5 minutes in PBS+0.2% Tween-20 then incubated for 1 hr at room temperature with fluorescently labeled secondary antibodies (Li-Cor) diluted 1:10000 in PBS/Odyssey Buffer (1:1)+0.1% Tween-20.
The blots were washed 2 times for 5 minutes in PBS+0.2% Tween-20, once in distilled water, then scanned on an Odyssey machine (Li-Cor). Band intensity was determined using the Odyssey software and Phopho-Akt signal was normalized to total Akt within samples, then expressed as a percentage of the untreated Phospho-Akt signal.

T1 sequence (P42336 whole entry): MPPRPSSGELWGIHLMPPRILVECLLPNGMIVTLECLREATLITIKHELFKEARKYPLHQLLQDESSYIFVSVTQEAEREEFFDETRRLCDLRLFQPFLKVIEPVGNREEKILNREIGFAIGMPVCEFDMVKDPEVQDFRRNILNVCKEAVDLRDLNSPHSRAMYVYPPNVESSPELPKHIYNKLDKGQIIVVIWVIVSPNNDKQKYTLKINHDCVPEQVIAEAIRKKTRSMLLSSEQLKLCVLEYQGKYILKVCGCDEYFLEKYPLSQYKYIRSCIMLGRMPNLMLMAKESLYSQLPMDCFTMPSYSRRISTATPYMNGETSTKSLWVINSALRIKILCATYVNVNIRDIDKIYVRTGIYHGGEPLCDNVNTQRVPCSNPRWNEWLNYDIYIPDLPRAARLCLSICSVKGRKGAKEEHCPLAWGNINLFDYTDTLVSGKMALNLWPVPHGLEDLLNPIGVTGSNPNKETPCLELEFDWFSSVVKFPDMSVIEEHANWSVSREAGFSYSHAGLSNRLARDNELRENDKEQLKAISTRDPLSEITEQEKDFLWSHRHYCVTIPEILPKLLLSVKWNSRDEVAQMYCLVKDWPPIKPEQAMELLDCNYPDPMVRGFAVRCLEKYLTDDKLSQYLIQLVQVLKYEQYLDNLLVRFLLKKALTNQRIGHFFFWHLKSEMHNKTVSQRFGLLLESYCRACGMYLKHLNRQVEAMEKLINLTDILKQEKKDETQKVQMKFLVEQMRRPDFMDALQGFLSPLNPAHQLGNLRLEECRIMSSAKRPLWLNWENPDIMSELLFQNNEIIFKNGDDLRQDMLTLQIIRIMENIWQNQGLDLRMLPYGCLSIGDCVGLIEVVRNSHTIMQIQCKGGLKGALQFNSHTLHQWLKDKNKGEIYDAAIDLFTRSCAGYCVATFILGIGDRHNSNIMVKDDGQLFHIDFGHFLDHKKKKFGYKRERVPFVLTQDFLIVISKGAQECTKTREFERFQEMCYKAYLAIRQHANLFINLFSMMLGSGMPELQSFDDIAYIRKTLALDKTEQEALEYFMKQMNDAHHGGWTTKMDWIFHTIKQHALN
T1 sequence (P27986 whole entry partner): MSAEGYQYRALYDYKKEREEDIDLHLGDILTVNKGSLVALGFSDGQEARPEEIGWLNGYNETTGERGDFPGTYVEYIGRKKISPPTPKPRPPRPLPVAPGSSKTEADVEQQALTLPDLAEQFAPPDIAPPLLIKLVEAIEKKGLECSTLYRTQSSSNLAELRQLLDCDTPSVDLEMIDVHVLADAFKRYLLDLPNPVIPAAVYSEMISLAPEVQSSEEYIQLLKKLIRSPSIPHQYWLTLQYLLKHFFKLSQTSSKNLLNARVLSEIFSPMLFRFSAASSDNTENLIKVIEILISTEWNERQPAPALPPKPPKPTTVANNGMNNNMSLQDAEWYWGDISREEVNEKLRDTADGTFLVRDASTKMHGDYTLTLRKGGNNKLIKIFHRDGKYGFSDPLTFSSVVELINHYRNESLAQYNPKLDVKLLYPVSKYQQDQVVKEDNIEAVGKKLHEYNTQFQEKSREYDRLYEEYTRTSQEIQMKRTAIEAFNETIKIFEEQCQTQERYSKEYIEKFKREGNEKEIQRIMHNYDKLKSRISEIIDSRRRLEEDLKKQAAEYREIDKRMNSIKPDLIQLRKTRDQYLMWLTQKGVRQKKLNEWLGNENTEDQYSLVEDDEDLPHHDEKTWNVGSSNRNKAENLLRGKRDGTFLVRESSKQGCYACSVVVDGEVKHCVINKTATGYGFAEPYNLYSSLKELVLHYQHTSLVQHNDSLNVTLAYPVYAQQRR
T2 sequence (P48736 whole entry): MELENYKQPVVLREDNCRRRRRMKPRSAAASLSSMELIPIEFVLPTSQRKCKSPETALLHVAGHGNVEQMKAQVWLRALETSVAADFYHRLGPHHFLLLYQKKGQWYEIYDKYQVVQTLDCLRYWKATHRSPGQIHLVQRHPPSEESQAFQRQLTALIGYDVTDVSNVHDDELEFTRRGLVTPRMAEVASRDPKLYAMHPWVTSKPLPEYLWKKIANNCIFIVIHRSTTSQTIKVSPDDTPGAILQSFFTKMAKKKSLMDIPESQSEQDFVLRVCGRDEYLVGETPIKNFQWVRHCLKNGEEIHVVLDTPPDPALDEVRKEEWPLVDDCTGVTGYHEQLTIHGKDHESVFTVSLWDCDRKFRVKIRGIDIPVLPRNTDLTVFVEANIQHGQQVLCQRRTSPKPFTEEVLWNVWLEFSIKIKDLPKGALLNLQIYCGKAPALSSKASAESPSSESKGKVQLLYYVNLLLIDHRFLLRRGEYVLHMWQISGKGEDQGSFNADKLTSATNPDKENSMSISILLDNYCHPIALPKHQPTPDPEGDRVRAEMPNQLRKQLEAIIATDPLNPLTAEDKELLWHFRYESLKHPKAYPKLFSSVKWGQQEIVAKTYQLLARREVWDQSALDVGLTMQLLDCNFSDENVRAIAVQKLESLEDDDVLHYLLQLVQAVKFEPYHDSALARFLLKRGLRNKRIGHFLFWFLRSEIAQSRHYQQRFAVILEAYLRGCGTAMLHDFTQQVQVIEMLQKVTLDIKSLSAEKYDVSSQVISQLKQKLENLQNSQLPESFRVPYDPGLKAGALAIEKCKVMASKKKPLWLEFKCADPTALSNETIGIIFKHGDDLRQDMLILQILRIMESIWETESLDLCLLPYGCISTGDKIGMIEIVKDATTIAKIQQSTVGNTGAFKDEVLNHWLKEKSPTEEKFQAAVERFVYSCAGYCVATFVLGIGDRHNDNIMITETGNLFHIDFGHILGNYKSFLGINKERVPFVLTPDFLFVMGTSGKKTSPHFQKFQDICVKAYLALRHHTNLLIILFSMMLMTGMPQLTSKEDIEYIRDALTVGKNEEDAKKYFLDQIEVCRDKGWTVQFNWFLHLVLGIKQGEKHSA

Row | Structure (SMILES) | EC50 (PI3K) | IC50 (PI3Kα (p110α/p85α)) | IC50 (PI3Kγ (p120γ)) | EC50 (Phospho-Akt(Ser473))
1 | C=CC(=O)NC1CCC(C(=O)N(C)Cc2cc3nc(-c4cccc(O)c4)nc(N4CCOCC4)c3s2)CC1 (racemic) [II-a-35, (±)-4-acrylamido-N-((2-(3-hydroxyphenyl)-4-morpholinothieno[3,2-d]pyrimidin-6-yl)methyl)-N-methylcyclohexanecarboxamide] | 100 to 500 nM | 100 to 1000 nM | 100 to 1000 nM | –
2 | O=C1NC(=O)/C(=C/c2ccc3nccc(-c4ccncc4)c3c2)S1 [GSK-615, reference compound] | < 20 nM | – | – | –
3 | C=CC(=O)NCC(=O)N1CCN(Cc2cc3nc(-c4cccc5[nH]ncc45)nc(N4CCOCC4)c3s2)CC1 [II-a-6, N-(2-(4-((2-(1H-indazol-4-yl)-4-morpholinothieno[3,2-d]pyrimidin-6-yl)methyl)piperazin-1-yl)-2-oxoethyl)acrylamide] | 2000 to 5000 nM | 100 to 1000 nM | > 1000 nM | –
4 | C=CC(=O)NCCS(=O)(=O)N1CCN(Cc2cc3nc(-c4cccc(O)c4)nc(N4CCOCC4)c3s2)CC1 [II-a-25, N-(2-(4-((2-(3-hydroxyphenyl)-4-morpholinothieno[3,2-d]pyrimidin-6-yl)methyl)piperazin-1-ylsulfonyl)ethyl)acrylamide] | 20 to 100 nM | 10 to 100 nM | 100 to 1000 nM | –
5 | C/C=C/C(=O)CCC(=O)NCCS(=O)(=O)N1CCN(Cc2cc3nc(-c4cccc(O)c4)nc(N4CCOCC4)c3s2)CC1 [II-a-26, (E)-N-(2-(4-((2-(3-hydroxyphenyl)-4-morpholinothieno[3,2-d]pyrimidin-6-yl)methyl)piperazin-1-ylsulfonyl)ethyl)-4-oxohept-5-enamide] | 20 to 100 nM | 10 to 100 nM | 100 to 1000 nM | –
6 | CC(C)=CC(=O)CCC(=O)NCCS(=O)(=O)N1CCN(Cc2cc3nc(-c4cccc(O)c4)nc(N4CCOCC4)c3s2)CC1 [II-a-28, N-(2-(4-((2-(3-hydroxyphenyl)-4-morpholinothieno[3,2-d]pyrimidin-6-yl)methyl)piperazin-1-ylsulfonyl)ethyl)-6-methyl-4-oxohept-5-enamide] | 20 to 100 nM | 100 to 1000 nM | 100 to 1000 nM | –
7 | C=CS(=O)(=O)N(C)Cc1cc2nc(-c3cccc(O)c3)nc(N3CCOCC3)c2s1 [II-a-29, N-((2-(3-hydroxyphenyl)-4-morpholinothieno[3,2-d]pyrimidin-6-yl)methyl)-N-methylethenesulfonamide] | 100 to 500 nM | 10 to 100 nM | 100 to 1000 nM | –
8 | C=CC(=O)N1CCN(CC#Cc2cc3nc(-c4cccc(O)c4)nc(N4CCOCC4)c3s2)CC1 [II-a-47, 1-(4-(3-(2-(3-hydroxyphenyl)-4-morpholinothieno[3,2-d]pyrimidin-6-yl)prop-2-ynyl)piperazin-1-yl)prop-2-en-1-one] | 100 to 500 nM | 10 to 100 nM | > 1000 nM | –
9 | C/C=C/C(=O)CCC(=O)N1CCN(CC#Cc2cc3nc(-c4cccc(O)c4)nc(N4CCOCC4)c3s2)CC1 [II-a-48, (E)-1-(4-(3-(2-(3-hydroxyphenyl)-4-morpholinothieno[3,2-d]pyrimidin-6-yl)prop-2-ynyl)piperazin-1-yl) hept-5-ene-1,4-dione] | 20 to 100 nM | < 10 nM | > 1000 nM | –
10 | C=CC(=O)NCc1cccc(-c2cc3nc(-c4cccc(O)c4)nc(N4CCOCC4)c3s2)c1 [II-a-64, N-(3-(2-(3-hydroxyphenyl)-4-morpholinothieno[3,2-d]pyrimidin-6-yl)benzyl)acrylamide] | – | < 10 nM | – | 10 to 100 nM
11 | C/C=C/C(=O)CCC(=O)N1CCC(C#Cc2cc3nc(-c4cccc(O)c4)nc(N4CCOCC4)c3s2)CC1 [II-a-89, (E)-1-(4-((2-(3-hydroxyphenyl)-4-morpholinothieno[3,2-d]pyrimidin-6-yl)ethynyl)piperidin-1-yl)hept-5-ene-1,4-dione] | – | < 10 nM | – | 10 to 100 nM
12 | C=CC(=O)Nc1ccc(CCNC(=O)c2cc3nc(-c4cnc(N)nc4)nc(N4CCOCC4)c3s2)cc1 [II-a-154, N-(4-acrylamidophenethyl)-2-(2-aminopyrimidin-5-yl)-4-morpholinothieno[3,2-d]pyrimidine-6-carboxamide] | – | 10 to 100 nM | – | ≤ 10 nM
13 | C=CC(=O)Nc1ccc(C(=O)N2CC=C(c3cc4nc(-c5cnc(N)nc5)nc(N5CCOCC5)c4s3)CC2)cc1 [II-a-156, N-(4-(4-(2-(2-aminopyrimidin-5-yl)-4-morpholinothieno[3,2-d]pyrimidin-6-yl)-1,2,3,6-tetrahydropyridine-1-carbonyl)phenyl)acrylamide] | – | 10 to 100 nM | – | ≤ 10 nM
14 | C=CC(=O)Nc1ccc(OCc2cc3nc(-c4cnc(N)nc4)nc(N4CCOCC4)c3s2)cc1 [II-a-172, N-(4-((2-(2-aminopyrimidin-5-yl)-4-morpholinothieno[3,2-d]pyrimidin-6-yl)methoxy)phenyl)acrylamide] | – | 100 to 1000 nM | – | ≤ 10 nM
15 | C=CC(=O)Nc1ccc(CN(C)Cc2cc3nc(-c4cnc(N)nc4)nc(N4CCOCC4)c3s2)cc1 [II-a-176, N-(4-((((2-(2-aminopyrimidin-5-yl)-4-morpholinothieno[3,2-d]pyrimidin-6-yl)methyl)(methyl)amino)methyl)phenyl)acrylamide] | – | 10 to 100 nM | – | 10 to 100 nM
16 | CC(C)=CC(=O)CCCC(=O)N1CCC(c2cc3nc(-c4cnc(N)nc4)cc(N4CCOCC4)c3s2)CC1 [II-g-6, 1-(4-(5-(2-aminopyrimidin-5-yl)-7-morpholinothieno[3,2-b]pyridin-2-yl)piperidin-1-yl)-7-methyloct-6-ene-1,5-dione] | – | 100 to 1000 nM | – | 100 to 1000 nM
17 | C=C(C)C(=O)CCCC(=O)N1CCN(c2ccnc3ccc(/C=C4\SC(Nc5c(Cl)cccc5Cl)=NC4=O)cc23)CC1 [V-3, (Z)-1-(4-(6-((2-(2,6-dichlorophenylamino)-4-oxothiazol-5(4H)-ylidene)methyl)quinolin-4-yl)piperazin-1-yl)-6-methylhept-6-ene-1,5-dione] | 500 to 2000 nM | 100 to 1000 nM | > 1000 nM | –
18 | C=CC(=O)Nc1ccc(CCNC(=O)c2cc(-c3cnc(N)nc3)nc(N3CCOCC3)c2)cc1 [XII-2, N-(4-acrylamidophenethyl)-2-(2-aminopyrimidin-5-yl)-6-morpholinoisonicotinamide] | – | 10 to 100 nM | – | ≥ 1000 nM
